Data as given in patent US20060069132A1, “Azolecarboxamide herbicides” (priority 2004, published 2006).

What was measured:
[1] = test system: large crabgrass; experiment: Test C pre-/postemergence herbicide test; type: in vivo, Digitaria sanguinalis
Method in brief: (§1)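 Preemergence: seeds planted and treated with compound in non-phytotoxic solvent with surfactant; postemergence: plants at 2 to 18 cm (1- to 4-leaf stage) sprayed likewise. Kept in greenhouse 12 to 14 days, then visually rated against controls, 0 (no effect) to 100 (complete control).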

[2] = test system: giant foxtail; experiment: Test C pre-/postemergence herbicide test; type: in vivo, Setaria faberi
Method in brief: as §1

[3] = test system: goosegrass; experiment: Test C pre-/postemergence herbicide test; type: in vivo, Eleusine indica
Method in brief: as §1

[4] = test system: yellow nutsedge; experiment: Test C pre-/postemergence herbicide test; type: in vivo, Cyperus esculentus
Method in brief: as §1

[5] = test system: pigweed; experiment: Test C pre-/postemergence herbicide test; type: in vivo, Amaranthus retroflexus
Method in brief: as §1

[6] = test system: common ragweed; experiment: Test C pre-/postemergence herbicide test; type: in vivo, Ambrosia elatior; set-up: key to Plant response rating, Ragweed: 0 = no effect, 100 = complete control
Method in brief: as §1

[7] = test system: soybean; experiment: Test C pre-/postemergence herbicide test; type: in vivo, Glycine max
Method in brief: as §1

[8] = test system: velvetleaf; experiment: Test C pre-/postemergence herbicide test; type: in vivo, Abutilon theophrasti
Method in brief: as §1

[9] = test system: ducksalad; experiment: Test C flooded paddy test; type: in vivo, Heteranthera limosa
[10] = test system: barnyardgrass; experiment: Test C flooded paddy test; type: in vivo, Echinochloa crus-galli
Method in brief: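 Scoring by eye, 12–14 days post-treatment, greenhouse-held plants vs. controls; 0 no effect, 100 complete control. Sprayed at 1–4 leaves (2–18 cm); paddy barnyardgrass at 2 leaves, flooded.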

[11] = 62 g ai/ha, preemergence, scale 0 to 100
[12] = 125 g ai/ha, scale 0 (no effect) to 100 (complete control), visual, 12 to 14 days, preemergence
[13] = 250 g ai/ha, scale 0 to 100 (0 no effect, 100 complete control), visual, 12 to 14 days, preemergence
[14] = Preemergence, 500 g ai/ha, scale 0 to 100, 0 no effect, 100 complete control
[15] = 62 g ai/ha, scale 0 to 100 (0 no effect, 100 complete control)
[16] = 250 g ai/ha, scale of 0 to 100, 0 is no effect, 100 is complete control
[17] = 500 g ai/ha, visual rating after 12 to 14 days, scale 0 to 100 (0 no effect, 100 complete control)

SMILES: CCc1nn(C(C)(C)C)cc1C(=O)Nc1cccc(C(C)=NO)c1 [Compound 188]
- Plant response rating, Crabgrass, Large [1, 11]: 95
- Plant response rating, Crabgrass, Large [1, 12]: 95
- Plant response rating, Crabgrass, Large [1, 13]: 95
- Crabgrass, Large plant response rating [1, 14]: 100
- Plant response rating, Foxtail, Giant [2, 11]: 0
- Plant response rating, Foxtail, Giant [2, 12]: 55
- Plant response rating, Foxtail, Giant [2, 13]: 70
- Foxtail, Giant plant response rating [2, 14]: 100
- Plant response rating, Goosegrass [3, 11]: 15
- Plant response rating, Goosegrass [3, 12]: 70
- Goosegrass plant response rating [3, 14]: 90
- Plant response rating, Nutsedge, Yellow [4, 11]: 0
- Plant response rating, Nutsedge, Yellow [4, 12]: 0
- Nutsedge, Yellow plant response rating [4, 14]: 0
- Plant response rating, Pigweed [5, 11]: 95
- Plant response rating, Pigweed [5, 12]: 95
- Pigweed plant response rating [5, 14]: 100
- Plant response rating, Ragweed [6, 11]: 0
- Plant response rating, Ragweed [6, 12]: 65
- Ragweed plant response rating [6, 14]: 100
- Plant response rating, Soybean [7, 11]: 0
- Plant response rating, Soybean [7, 12]: 0
- Soybean plant response rating [7, 14]: 0
- Plant response rating, Velvetleaf [8, 11]: 0
- Plant response rating, Velvetleaf [8, 12]: 0
- Velvetleaf plant response rating [8, 14]: 75
- Ducksalad plant response rating [9, 15]: 20
- Ducksalad plant response rating ([9]; 125 g ai/ha, scale 0 to 100 (0 no effect, 100 complete control)): 65
- Ducksalad plant response rating [9, 16]: 75
- Plant response rating, Ducksalad [9, 17]: 85
- Barnyardgrass plant response rating [10, 15]: 35
- Barnyardgrass plant response rating ([10]; 125 g ai/ha, scale of 0 to 100, 0 is no effect, 100 is complete control): 55
- Barnyardgrass plant response rating [10, 16]: 75
- Plant response rating, Barnyardgrass [10, 17]: 85

SMILES: CCNC(=O)c1ccc(F)c(NC(=O)C2CN(C(C)(C)C)N=C2CC)c1 (centres unmarked) [Compound 336, 1-(1,1-dimethylethyl)-3-ethyl-N-[5-[(ethylamino)carbonyl]-2-fluorophenyl]-4,5-dihydro-1H-pyrazole-4-carboxamide]
- pest or weed control at 62 g/ha ([1]; Digitaria sanguinalis, pre-emergence, 312 h, 62 g ai/ha, preemergence, scale 0 to 100, read-out: Plant response rating, Crabgrass, Large): 100%
- pest or weed control at 125 g/ha ([1]; Digitaria sanguinalis, pre-emergence, 312 h, 125 g ai/ha, scale 0 (no effect) to 100 (complete control), visual, 12 to 14 days, read-out: Plant response rating, Crabgrass, Large): 100%
- pest or weed control at 250 g/ha ([1]; Digitaria sanguinalis, pre-emergence, 312 h, 250 g ai/ha, scale 0-100, read-out: Plant response rating, Crabgrass, Large): 100%
- pest or weed control at 500 g/ha ([1]; Digitaria sanguinalis, pre-emergence, 312 h, 500 g ai/ha, scale 0 to 100 (0 no effect, 100 complete control), visual, 12 to 14 days, read-out: Plant response rating, Crabgrass, Large): 100%
- pest or weed control at 62 g/ha ([2]; Setaria faberi, pre-emergence, 312 h, 62 g ai/ha, preemergence, scale 0 to 100, read-out: Plant response rating, Foxtail, Giant): 0%
- pest or weed control at 125 g/ha ([2]; Setaria faberi, pre-emergence, 312 h, 125 g ai/ha, scale 0 (no effect) to 100 (complete control), visual, 12 to 14 days, read-out: Plant response rating, Foxtail, Giant): 5%
- pest or weed control at 250 g/ha ([2]; Setaria faberi, pre-emergence, 312 h, 250 g ai/ha, scale 0-100, read-out: Plant response rating, Foxtail, Giant): 90%
- pest or weed control at 500 g/ha ([2]; Setaria faberi, pre-emergence, 312 h, 500 g ai/ha, scale 0 to 100 (0 no effect, 100 complete control), visual, 12 to 14 days, read-out: Plant response rating, Foxtail, Giant): 90%
- pest or weed control at 62 g/ha ([3]; Eleusine indica, pre-emergence, 312 h, 62 g ai/ha, preemergence, scale 0 to 100, read-out: Plant response rating, Goosegrass): 95%
- pest or weed control at 125 g/ha ([3]; Eleusine indica, pre-emergence, 312 h, 125 g ai/ha, scale 0 (no effect) to 100 (complete control), visual, 12 to 14 days, read-out: Plant response rating, Goosegrass): 100%
- pest or weed control at 250 g/ha ([3]; Eleusine indica, pre-emergence, 312 h, 250 g ai/ha, scale 0-100, read-out: Plant response rating, Goosegrass): 100%
- pest or weed control at 500 g/ha ([3]; Eleusine indica, pre-emergence, 312 h, 500 g ai/ha, scale 0 to 100 (0 no effect, 100 complete control), visual, 12 to 14 days, read-out: Plant response rating, Goosegrass): 100%
- pest or weed control at 62 g/ha ([4]; Cyperus, pre-emergence, 62 g ai/ha, preemergence, scale 0 to 100, read-out: Plant response rating, Nutsedge, Yellow): 0%
- pest or weed control at 125 g/ha ([4]; Cyperus, pre-emergence, 125 g ai/ha, scale 0 (no effect) to 100 (complete control), visual, 12 to 14 days, read-out: Plant response rating, Nutsedge, Yellow): 5%
- pest or weed control at 250 g/ha ([4]; Cyperus, pre-emergence, 250 g ai/ha, scale 0-100, read-out: Plant response rating, Nutsedge, Yellow): 20%
- pest or weed control at 500 g/ha ([4]; Cyperus, pre-emergence, 500 g ai/ha, scale 0 to 100 (0 no effect, 100 complete control), visual, 12 to 14 days, read-out: Plant response rating, Nutsedge, Yellow): 60%
- pest or weed control at 62 g/ha ([5]; Amaranthus retroflexus, pre-emergence, 62 g ai/ha, preemergence, scale 0 to 100, read-out: Plant response rating, Pigweed): 100%
- pest or weed control at 125 g/ha ([5]; Amaranthus retroflexus, pre-emergence, 125 g ai/ha, scale 0 (no effect) to 100 (complete control), visual, 12 to 14 days, read-out: Plant response rating, Pigweed): 100%
- pest or weed control at 250 g/ha ([5]; Amaranthus retroflexus, pre-emergence, 250 g ai/ha, scale 0-100, read-out: Plant response rating, Pigweed): 100%
- pest or weed control at 500 g/ha ([5]; Amaranthus retroflexus, pre-emergence, 500 g ai/ha, scale 0 to 100 (0 no effect, 100 complete control), visual, 12 to 14 days, read-out: Plant response rating, Pigweed): 100%
- pest or weed control at 62 g/ha ([6]; Ambrosia artemisiifolia, pre-emergence, 62 g ai/ha, preemergence, scale 0 to 100, read-out: Plant response rating, Ragweed): 30%
- pest or weed control at 250 g/ha ([6]; Ambrosia artemisiifolia, pre-emergence, 250 g ai/ha, scale 0-100, read-out: Plant response rating, Ragweed): 80%
- pest or weed control at 500 g/ha ([6]; Ambrosia artemisiifolia, pre-emergence, 500 g ai/ha, scale 0 to 100 (0 no effect, 100 complete control), visual, 12 to 14 days, read-out: Plant response rating, Ragweed): 100%
- plant injury at 62 g/ha ([7]; Glycine max, pre-emergence, 62 g ai/ha, preemergence, scale 0 to 100, read-out: Plant response rating, Soybean): 0%
- plant injury at 250 g/ha ([7]; Glycine max, pre-emergence, 250 g ai/ha, scale 0-100, read-out: Plant response rating, Soybean): 50%
- plant injury at 500 g/ha ([7]; Glycine max, pre-emergence, 500 g ai/ha, scale 0 to 100 (0 no effect, 100 complete control), visual, 12 to 14 days, read-out: Plant response rating, Soybean): 100%
- pest or weed control at 62 g/ha ([8]; Abutilon theophrasti, pre-emergence, 62 g ai/ha, preemergence, scale 0 to 100, read-out: Plant response rating, Velvetleaf): 5%
- pest or weed control at 250 g/ha ([8]; Abutilon theophrasti, pre-emergence, 250 g ai/ha, scale 0-100, read-out: Plant response rating, Velvetleaf): 100%
- pest or weed control at 500 g/ha ([8]; Abutilon theophrasti, pre-emergence, 500 g ai/ha, scale 0 to 100 (0 no effect, 100 complete control), visual, 12 to 14 days, read-out: Plant response rating, Velvetleaf): 100%
- pest or weed control at 62 g/ha ([9]; Heteranthera limosa, 62 g ai/ha, scale 0 to 100, read-out: Ducksalad plant response rating): 45%
- pest or weed control at 125 g/ha ([9]; Heteranthera limosa, 125 g ai/ha, scale 0 to 100 (0 no effect, 100 complete control), read-out: Ducksalad plant response rating): 55%
- pest or weed control at 250 g/ha ([9]; Heteranthera limosa, 250 g ai/ha, scale of 0 to 100, 0 is no effect, 100 is complete control, read-out: Ducksalad plant response rating): 75%
- pest or weed control at 500 g/ha ([9]; Heteranthera limosa, 500 g ai/ha, visual rating after 12 to 14 days, scale 0 to 100 (0 no effect, 100 complete control), read-out: Plant response rating, Ducksalad): 90%
- pest or weed control at 62 g/ha ([10]; Echinochloa crus-galli, 62 g ai/ha, scale 0 to 100 (0 no effect, 100 complete control), read-out: Barnyardgrass plant response rating): 0%
- pest or weed control at 125 g/ha ([10]; Echinochloa crus-galli, 125 g ai/ha, scale 0 to 100 (0 no effect, 100 complete control), read-out: Barnyardgrass plant response rating): 0%
- pest or weed control at 250 g/ha ([10]; Echinochloa crus-galli, 250 g ai/ha, scale of 0 to 100, 0 is no effect, 100 is complete control, read-out: Barnyardgrass plant response rating): 60%
- pest or weed control at 500 g/ha ([10]; Echinochloa crus-galli, 500 g ai/ha, visual rating after 12 to 14 days, scale 0 to 100 (0 no effect, 100 complete control), read-out: Plant response rating, Barnyardgrass): 80%
